We go through one molecule from publication PMC5519579, “Inhibition of PAI-1 Activity by Toddalolactone as a Mechanism for Promoting Blood Circulation and Removing Stasis by Chinese Herb Zanthoxylum nitidum var. tomentosum” (Frontiers in Pharmacology, 2017).

The experiment addresses T1, plasminogen activator inhibitor-1 (PAI-1) (Homo sapiens, UniProt P05121).
T1 construct: gene SERPINE1; recombinant human PAI-1
The experiment is described as follows: chromogenic uPA/S-2444 assay with recombinant PAI-1; supported by SDS-PAGE of PAI-1/uPA complex and clot lysis assay. The class given is biochemical.

The term IC50 denotes the concentration at which inhibition is half-maximal.

T1 sequence (P05121 24-402, other chains not shown): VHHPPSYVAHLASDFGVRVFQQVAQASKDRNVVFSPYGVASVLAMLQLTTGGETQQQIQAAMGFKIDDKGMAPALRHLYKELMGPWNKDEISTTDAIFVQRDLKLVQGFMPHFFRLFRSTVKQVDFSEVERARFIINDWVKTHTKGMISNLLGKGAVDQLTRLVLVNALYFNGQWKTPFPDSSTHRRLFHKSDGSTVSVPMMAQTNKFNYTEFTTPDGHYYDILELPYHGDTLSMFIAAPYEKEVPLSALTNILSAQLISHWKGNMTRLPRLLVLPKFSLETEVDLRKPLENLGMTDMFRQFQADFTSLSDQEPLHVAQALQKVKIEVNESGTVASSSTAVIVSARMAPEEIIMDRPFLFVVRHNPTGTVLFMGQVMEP

As for `COc1cc2oc(=O)ccc2c(OC)c1C[C@@H](O)C(C)(C)O` (single isomer, unassigned) [Peak 4, toddalolactone], the concentration for half-maximal inhibition (IC50) worked out at 37.3 ± 3.23 µM.
